Results from patent publication US4285941A, “Cephalosporin compounds and antibacterial drugs containing the same” (Eisai Co., Ltd., priority 1979, dated 1981).

Key:
Assay in all cases: Minimal inhibitory concentration (MIC), standard agar dilution method
Format in all cases: cell-based
[1] = test system: Escherichia coli NIHJ; conditions: Mueller Hinton agar, 37° C., 18 hours, Examples 1, 2, 4, 5, 6, 8 and 22 as sodium salts, others as free carboxylic acids
Method: (§1) The compounds obtained in these examples were tested for their antibacterial activities in vitro. Minimal inhibitory concentration (MIC) was determined by the standard agar dilution method of the Japan Society of Chemotherapy. Compounds were dissolved in appropriate solvents (sterilized water for sodium salts and acetone-water [1:1] for free acids) and serial two-fold dilutions were made. Sodium salt of Cefazolin was chosen as the control compound. One-ml aliquots of each dilution were mixed with 9 ml of Mueller Hinton agar in petri-dishes to make agar plates containing the compound at serially diluted concentrations. After agar hardened, plates were put in an incubator at 37° C. for 1.5-2 hours with the lids slightly open to evaporate acetone off the plates. Test organisms were grown for 18 hours at 37° C. in Trypticase Soy broth and diluted in saline to approximately 10^6 colony forming units per ml. A loopful of each cell suspension was applied on the agar plate mentioned above and the plates were incubated for 18 hours at 37° C. before MIC was determined. MIC values of the compounds of Examples 1, 2, 4, 5, 6, 8 and 22 were determined as their sodium salts and those of other compounds as free carboxylic acids.

[2] = test system: Proteus morganii EP-14; conditions: Morganella morganii, EP14; Mueller Hinton agar, 37° C., 18 hours; Examples 1, 2, 4, 5, 6, 8 and 22 as sodium salts, others as free carboxylic acids
Method: as §1

[3] = test system: Serratia marcescens ES-75; conditions: ES75, Mueller Hinton agar, 37° C., 18 hours, Examples 1, 2, 4, 5, 6, 8 and 22 as sodium salts, others as free carboxylic acids
Method: as §1

[4] = test system: Pseudomonas aeruginosa EP-172; conditions: EP172, Mueller Hinton agar, 37° C., 18 hours, Examples 1, 2, 4, 5, 6, 8 and 22 as sodium salts, others as free carboxylic acids
Method: as §1

[5] = test system: Klebsiella pneumoniae EK-6; conditions: EK6, Mueller Hinton agar, 37° C., 18 hours, Examples 1, 2, 4, 5, 6, 8 and 22 as sodium salts, others as free carboxylic acids
Method: as §1

[6] = test system: Staphylococcus aureus 209-P; conditions: Mueller Hinton agar, 37° C., 18 hours, Examples 1, 2, 4, 5, 6, 8 and 22 as sodium salts, others as free carboxylic acids
Method: as §1

Q: What does the source list for `Cc1nnc(SCC2=C(C(=O)O)N3C(=O)[C@@H](NC(=O)[C@H](NC(=O)c4coc5cc(O)c(O)cc5c4=O)c4ccccc4)[C@H]3SC2)s1` [Example 2, 7β-[D-2-(6,7-Dihydroxychromone-3-carboxamido)-2-phenyl-acetamido]-3-[(5-methyl-1,3,4-thiadiazol-2-yl)thiomethyl]-3-cephem-4-carboxylic acid]?
A: MIC [1]: 0.8 µg/mL; MIC [2]: 0.8 µg/mL; MIC [3]: ≤ 0.1 µg/mL; MIC [4]: 3.13 µg/mL; MIC [5]: ≤ 0.1 µg/mL; MIC [6]: 1.56 µg/mL

Q: `Cn1nnnc1SCC1=C(C(=O)O)N2C(=O)[C@@H](NC(=O)[C@H](NC(=O)c3coc4cc(O)c(O)cc4c3=O)c3ccc(O)cc3)[C@H]2SC1` [Example 3, 7β-[D-2-(6,7-Dihydroxychromone-3-carboxamido)-2-(4-hydroxyphenyl)acetamido]-3-[(1-methyltetrazol-5-yl)thiomethyl]-3-cephem-4-carboxylic acid] was tested. Which MIC [1] did it give?
A: 0.2 µg/mL

Q: And the MIC [2]?
A: 0.4 µg/mL

Q: And the MIC [3]?
A: ≤ 0.1 µg/mL

Q: And the MIC [4]?
A: 0.4 µg/mL

Q: And the MIC [5]?
A: ≤ 0.1 µg/mL

Q: And the MIC [6]?
A: 0.8 µg/mL

Q: What does the source list for `CC(=O)Oc1cc2occ(C(=O)N[C@@H](C(=O)N[C@@H]3C(=O)N4C(C(=O)O)=C(CSc5nnc(C)s5)CS[C@H]34)c3ccccc3)c(=O)c2cc1OC(C)=O` [Example 6, 7β-[D-2-(6,7-Diacetoxychromone-3-carboxamido)-2-phenylacetamido]-3-[(5-methyl-1,3-4-thiadiazol-2-yl)thiomethyl]-3-cephem-4-carboxylic acid]?
A: MIC [1]: 0.8 µg/mL; MIC [2]: 0.8 µg/mL; MIC [3]: ≤ 0.1 µg/mL; MIC [4]: 3.13 µg/mL; MIC [5]: ≤ 0.1 µg/mL; MIC [6]: 1.56 µg/mL

Q: With `CC(=O)Oc1cc2occ(C(=O)N[C@@H](C(=O)N[C@@H]3C(=O)N4C(C(=O)O)=C(CSc5nnnn5C)CS[C@H]34)c3ccc(O)cc3)c(=O)c2cc1OC(C)=O` [Example 7, 7β-[D-2-(6,7-Diacetoxychromone-3-carboxamido)-2-(4-hydroxyphenyl)acetamido]-3-[(1-methyltetrazol-5-yl)thiomethyl]-3-cephem-4-carboxylic acid] as the molecule, how does the MIC [1] read?
A: ≤ 0.1 µg/mL

Q: And the MIC [2]?
A: 0.4 µg/mL

Q: What about the MIC [3] of the same molecule?
A: ≤ 0.1 µg/mL

Q: What about the MIC [4] of the same molecule?
A: 0.4 µg/mL

Q: What about the MIC [5] of the same molecule?
A: ≤ 0.1 µg/mL

Q: And the MIC [6]?
A: 1.56 µg/mL

Q: How did the MIC [1] turn out when `CC(=O)Oc1cc2occ(C(=O)N[C@@H](C(=O)N[C@@H]3C(=O)N4C(C(=O)O)=C(CSc5nnc(C)s5)CS[C@H]34)c3ccc(O)cc3)c(=O)c2cc1OC(C)=O` [Example 8, 7β-[D-2-(6,7-Diacetoxychromone-3-carboxamido)-2-(4-hydroxyphenyl)acetamido]-3-[(5-methyl-1,3,4-thiadiazol-2-yl)thiomethyl]-3-cephem-4-carboxylic acid] was run?
A: 0.8 µg/mL

Q: What about the MIC [2] of the same molecule?
A: 1.56 µg/mL

Q: And the MIC [3]?
A: ≤ 0.1 µg/mL

Q: And the MIC [4]?
A: 1.56 µg/mL

Q: And the MIC [5]?
A: ≤ 0.1 µg/mL

Q: And the MIC [6]?
A: 3.13 µg/mL

Q: Which results are given for `Cn1nnnc1SCC1=C(C(=O)O)N2C(=O)[C@@H](NC(=O)[C@H](NC(=O)c3coc4c(O)c(O)ccc4c3=O)c3ccc(O)cc3)[C@H]2SC1` [Example 9, 7β-[D-2-(7,8-Dihydroxychromone-3-carboxamido)-2-(4-hydroxyphenyl)acetamido]-3-[(1-methyltetrazol-5-yl)thiomethyl]-3-cephem-4-carboxylic acid]?
A: MIC [1]: 1.56 µg/mL; MIC [2]: 12.5 µg/mL; MIC [3]: 3.13 µg/mL; MIC [4]: 6.25 µg/mL; MIC [5]: ≤ 0.1 µg/mL; MIC [6]: 0.8 µg/mL

Q: What does the source list for `CC(=O)Oc1ccc2c(=O)c(C(=O)N[C@@H](C(=O)N[C@@H]3C(=O)N4C(C(=O)O)=C(CSc5nnc(C)s5)CS[C@H]34)c3ccccc3)coc2c1OC(C)=O` [Example 10, 7β-[D-2-(7,8-Diacetoxychromone-3-carboxamido)-2-phenyl-acetamido]-3-[(5-methyl-1,3,4-thiadiazol-2-yl)thiomethyl]-3-cephem-4-carboxylic acid]?
A: MIC [1]: 0.8 µg/mL; MIC [2]: 1.56 µg/mL; MIC [3]: 0.2 µg/mL; MIC [4]: 1.56 µg/mL; MIC [5]: ≤ 0.1 µg/mL; MIC [6]: 0.8 µg/mL

Q: `CC(=O)Oc1ccc2c(=O)c(C(=O)N[C@@H](C(=O)N[C@@H]3C(=O)N4C(C(=O)O)=C(CSc5nnnn5C)CS[C@H]34)c3ccc(O)cc3)coc2c1OC(C)=O` [Example 11, 7β-[D-2-(7,8-Diacetoxychromone-3-carboxamido)-2-(4-hydroxyphenyl)acetamido] -3-[(1-methyltetrazol-5-yl)thiomethyl]-3-cephem-4-carboxylic acid] was tested. Which MIC [1] did it give?
A: 0.8 µg/mL

Q: And the MIC [2]?
A: 25 µg/mL

Q: What about the MIC [3] of the same molecule?
A: 1.56 µg/mL

Q: And the MIC [4]?
A: 6.25 µg/mL

Q: And the MIC [5]?
A: ≤ 0.1 µg/mL

Q: What about the MIC [6] of the same molecule?
A: 0.8 µg/mL

Q: Which results are given for `CC(=O)Oc1ccc2c(=O)c(C(=O)N[C@@H](C(=O)N[C@@H]3C(=O)N4C(C(=O)O)=C(CSc5nnc(C)s5)CS[C@H]34)c3ccc(O)cc3)coc2c1OC(C)=O` [Example 12, 7β[D-2-(7,8-Diacetoxychromone-3-carboxamido)-2-(4-hydroxyphenyl)acetamido]-3-[(5-methyl-1,3,4-thiadiazol-2-yl)thiomethyl]-3-cephem-4-carboxylic acid]?
A: MIC [1]: 1.56 µg/mL; MIC [2]: 3.13 µg/mL; MIC [3]: 0.2 µg/mL; MIC [4]: 1.56 µg/mL; MIC [5]: ≤ 0.1 µg/mL; MIC [6]: 1.56 µg/mL

Q: With `Cn1nnnc1SCC1=C(C(=O)O)N2C(=O)[C@@H](NC(=O)[C@H](NC(=O)c3coc4cc(O)ccc4c3=O)c3ccc(O)cc3)[C@H]2SC1` [Example 13, 7β-[D-2-(7-Hydroxychromone-3-carboxamido)-2-(4-hydroxyphenyl)acetamido]-3-[(1-methyltetrazol-5-yl)thiomethyl]-3-cephem-4-carboxylic acid] as the molecule, how does the MIC [1] read?
A: 6.25 µg/mL

Q: What about the MIC [2] of the same molecule?
A: 25 µg/mL

Q: What about the MIC [3] of the same molecule?
A: 12.5 µg/mL

Q: And the MIC [4]?
A: 50 µg/mL

Q: And the MIC [5]?
A: 12.5 µg/mL

Q: And the MIC [6]?
A: 0.4 µg/mL

Q: Which results are given for `Cn1nnnc1SCC1=C(C(=O)O)N2C(=O)[C@@H](NC(=O)[C@H](NC(=O)c3coc4ccccc4c3=O)c3ccc(O)cc3)[C@H]2SC1` [Example 15, 7β-[D-2-(Chromone-3-carboxamido)-2-(4-hydroxyphenyl)acetamido]-3-[(1-methyltetrazol-5-yl)thiomethyl]-3-cephem-4-carboxylic acid]?
A: MIC [1]: 6.25 µg/mL; MIC [2]: 25 µg/mL; MIC [3]: 25 µg/mL; MIC [4]: 100 µg/mL; MIC [5]: 12.5 µg/mL; MIC [6]: 0.4 µg/mL

Q: How did the MIC [1] turn out when `Cn1nnnc1SCC1=C(C(=O)O)N2C(=O)[C@@H](NC(=O)[C@H](NC(=O)c3coc4ccccc4c3=O)c3ccccc3)[C@H]2SC1` [Example 16, 7β-[D-2-(Chromone-3-carboxamido)-2-phenylacetamido]-3-[(1-methyltetrazol-5-yl)thiomethyl]-3-cephem-4-carboxylic acid] was run?
A: 6.25 µg/mL

Q: And the MIC [2]?
A: 6.25 µg/mL

Q: And the MIC [3]?
A: 3.13 µg/mL

Q: What about the MIC [4] of the same molecule?
A: 25 µg/mL

Q: What about the MIC [5] of the same molecule?
A: 6.25 µg/mL

Q: And the MIC [6]?
A: ≤ 0.1 µg/mL

Q: For `O=C(O)C1=C(CSc2nncs2)CS[C@@H]2[C@H](NC(=O)[C@H](NC(=O)c3coc4cc(O)c(O)cc4c3=O)c3ccc(O)cc3)C(=O)N12` [Example 19, 7β-[D-2-(6,7-Dihydroxychromone-3-carboxamido)-2-(4-hydroxyphenyl)acetamido]-3-[(1,3,4-thiadiazol-2-yl)thiomethyl]-3-cephem-4-carboxylic acid], which MIC [1] is on record?
A: 0.4 µg/mL

Q: And the MIC [2]?
A: 12.5 µg/mL

Q: What about the MIC [3] of the same molecule?
A: 0.2 µg/mL

Q: What about the MIC [4] of the same molecule?
A: 0.4 µg/mL

Q: What about the MIC [5] of the same molecule?
A: ≤ 0.1 µg/mL

Q: What about the MIC [6] of the same molecule?
A: 0.8 µg/mL

Q: With `CCn1nnnc1SCC1=C(C(=O)O)N2C(=O)[C@@H](NC(=O)[C@H](NC(=O)c3coc4cc(O)c(O)cc4c3=O)c3ccc(O)cc3)[C@H]2SC1` [Example 20, 7β-[D-2-(6,7-Dihydroxychromone-3-carboxamido)-2-(4-hydroxyphenyl)acetamido]-3-[(1-ethyltetrazol-5-yl)thiomethyl]-3-cephem-4-carboxylic acid] as the molecule, how does the MIC [1] read?
A: 0.2 µg/mL

Q: And the MIC [2]?
A: 3.13 µg/mL

Q: What about the MIC [3] of the same molecule?
A: ≤ 0.1 µg/mL

Q: And the MIC [4]?
A: 0.2 µg/mL

Q: And the MIC [5]?
A: ≤ 0.1 µg/mL

Q: And the MIC [6]?
A: 0.8 µg/mL

Q: With `CN(C)CCn1nnnc1SCC1=C(C(=O)O)N2C(=O)[C@@H](NC(=O)[C@H](NC(=O)c3coc4cc(O)c(O)cc4c3=O)c3ccc(O)cc3)[C@H]2SC1` [Example 21, 7β-[D-2-(6,7-Dihydroxychromone-3-carboxamido)-2-(4-hydroxyphenyl)acetamido]-3-{[1-(2-dimethylaminoethyl)tetrazol-5-yl]-thiomethyl}-3-cephem-4-carboxylic acid] as the molecule, how does the MIC [1] read?
A: 0.4 µg/mL

Q: And the MIC [2]?
A: 12.5 µg/mL

Q: What about the MIC [3] of the same molecule?
A: ≤ 0.1 µg/mL

Q: And the MIC [4]?
A: 0.8 µg/mL

Q: And the MIC [5]?
A: ≤ 0.1 µg/mL

Q: What about the MIC [6] of the same molecule?
A: 1.56 µg/mL

Q: What does the source list for `O=C(O)C1=C(CSc2nnc[nH]2)CS[C@@H]2[C@H](NC(=O)[C@H](NC(=O)c3coc4cc(O)c(O)cc4c3=O)c3ccc(O)cc3)C(=O)N12` [Example 22]?
A: MIC [1]: 1.56 µg/mL; MIC [2]: 50 µg/mL; MIC [3]: 0.4 µg/mL; MIC [4]: 1.56 µg/mL; MIC [5]: ≤ 0.1 µg/mL; MIC [6]: 3.13 µg/mL

Q: How did the MIC [1] turn out when `O=C(O)Cn1nnnc1SCC1=C(C(=O)O)N2C(=O)[C@@H](NC(=O)[C@H](NC(=O)c3coc4cc(O)c(O)cc4c3=O)c3ccc(O)cc3)[C@H]2SC1` [Example 23] was run?
A: 0.4 µg/mL

Q: What about the MIC [2] of the same molecule?
A: 12.5 µg/mL

Q: What about the MIC [3] of the same molecule?
A: ≤ 0.1 µg/mL

Q: And the MIC [4]?
A: 0.8 µg/mL

Q: And the MIC [5]?
A: ≤ 0.1 µg/mL

Q: And the MIC [6]?
A: 3.13 µg/mL
